Test [1] deals with Lactobacillus strains (L. rhamnosus BCRC 10940, L. paracasei BCRC 14001, L. delbrueckii BCRC 14008). In words: antimicrobial activity (MIC), microtitre plate-based method. It counts as cell-based. Particulars: 10^5 cfu/ml, 37° C., 24 h, MRS medium, triplicate; read-out: minimal inhibitory concentration (MIC). Here is the method: (§1) Three Lactobacillus strains, L. rhamnosus BCRC 10940, L. paracasei BCRC 14001, L. delbrueckii BCRC 14008, were purchased from the FIRDI, which were cultured in MRS w/o agar medium (Difco) and stored at 4° C. To activate the bacteria, the cells were inoculated in MRS medium at a concentration of 5% (v/v) and cultured at 37° C. for 24 hours, and then 10^7 cells/ml of each of the three Lactobacillus strains was inoculated in 5 ml of MRS medium with shaking overnight.
(§2) Antimicrobial activity of antibiotics against the three Lactobacillus strains was measured by a microtitre plate-based method. […] 10 μl of activated bacterial cultures was added to each well to achieve a concentration of 10^5 cfu/ml per well, and the plates were incubated at 37° C. for 24 h. The growth of the bacteria was measured by absorbance at 600 nm and the survival percentages were determined. Further, the minimal inhibitory concentration (MIC) was determined as the lowest concentration of the antibiotics allowing no visible growth of the bacteria. Data are the averages of a triplicate experiment.

Test [2] relates to L. paracasei. In words: microtitre plate-based growth assay, cell number (Table 3). Details: species or system L. paracasei BCRC 14001. As to the method: as §1, §2
(§3) On the other hand, the fermented soy extract prepared of the invention as in Example 1 was analyzed for its prebiotic activity to support the growth of beneficial bacteria using the microtitre plate-based method as described above. The fermented soy extract of the invention was added at a concentration of 5% into the wells and the plates were incubated at 37° C. for 48 h. The cell number was counted.

The test system of test [3] is L. delbrueckii. The description is as above. More on the design: species or system L. delbrueckii BCRC 14008. As to the method:
as §1, §2, §3

Test [4] relates to L. delbrueckii. Description: simultaneous treatment of antibiotics and fermented soy extract, survival counting. The conditions noted are these: FSE 5% where added, 48 h. It counts as cell-based. As to the method:
as §1
(§4) The plates were incubated at 37° C. for 48 h.

The test system of test [5] is L. paracasei. The test is described as above. It counts as cell-based. The conditions noted are these: FSE 5% where added, 48 h. As to the method: as §1, §4
Test [6] deals with L. rhamnosus. The description is as above. The conditions noted are these: FSE 5% where added, 48 h. It is filed as cell-based. As to the method: as §1, §4
The subject of test [7] is L. rhamnosus. In words: microtitre plate-based growth assay, cell number (Table 3). Details: species or system L. rhamnosus BCRC 10940. Here is the method:
as §1, §2, §3

SMILES strings stand for the structures. ≈ marks a conversion by molar mass, not a printed value.

Take `CC1(C)S[C@@H]2[C@H](NC(=O)[C@H](N)c3ccccc3)C(=O)N2[C@H]1C(=O)O` [AMP, ampicillin]: the MIC in test [1] is 3.6 µg/mL (≈ 10.3 µM). Besides, the “cell number L. paracasei” value in the test with L. paracasei [2] (antibiotic 2 μg) was 3.29 × 10^6. Further, the “cell number L. delbrueckii” value in the test on L. delbrueckii [3] (antibiotic 2 μg) is 5.58 × 10^6. Moreover, the “survival counting L. delbrueckii” value with L. delbrueckii [4] (antibiotic 2 μg/ml) turned out to be 4330 ± 260. Further, the “survival counting L. paracasei” value is given as 3670 ± 350 in the test on L. paracasei [5] (antibiotic 2 μg/ml) and 4700 ± 409 in the test with L. paracasei [5] (antibiotic 5 μg/ml). Besides, the “survival counting L. rhamnosus” value is recorded as 967 ± 76 with L. rhamnosus [6] (antibiotic 2 μg/ml) and 230 ± 15 in the test on L. rhamnosus [6] (antibiotic 5 μg/ml). Besides, the “cell number L. rhamnosus” value in the test on L. rhamnosus [7] (antibiotic 2 μg) is listed as 6.30 × 10^4.
Consider `CC[C@H]1OC(=O)[C@H](C)[C@@H](O[C@H]2C[C@@](C)(OC)[C@@H](O)[C@H](C)O2)[C@H](C)[C@@H](O[C@@H]2O[C@H](C)C[C@H](N(C)C)[C@H]2O)[C@](C)(O)C[C@@H](C)C(=O)[C@H](C)[C@@H](O)[C@]1(C)O` [Eryc, erythromycin], for which the MIC in test [1] is 1 µg/mL (≈ 1.36 µM). Besides, the “cell number L. paracasei” value in the test with L. paracasei [2] (antibiotic 2 μg) is on record as 3.18 × 10^5. Besides, the “cell number L. delbrueckii” value in the test with L. delbrueckii [3] (antibiotic 2 μg) is reported as 3.16 × 10^5. Also, in the test with L. rhamnosus [7] (antibiotic 2 μg), the “cell number L. rhamnosus” value was 5.07 × 10^4.
Take `CC[C@H]1OC(=O)[C@H](C)[C@@H](O[C@H]2C[C@@](C)(OC)[C@@H](O)[C@H](C)O2)[C@H](C)[C@@H](O[C@@H]2O[C@H](C)C[C@H](N(C)C)[C@H]2O)[C@](C)(OC)C[C@@H](C)C(=O)[C@H](C)[C@@H](O)[C@]1(C)O` [CAM, clarithromycin]: the MIC in test [1] is 1 µg/mL (≈ 1.34 µM). For the same molecule, the “cell number L. paracasei” value in the test with L. paracasei [2] (antibiotic 1 μg) is 3.27 × 10^5. For the same molecule, the “cell number L. delbrueckii” value in the test with L. delbrueckii [3] (antibiotic 1 μg) is listed as 3.45 × 10^5. Moreover, the “cell number L. rhamnosus” value in the test with L. rhamnosus [7] (antibiotic 1 μg) is recorded as 5.10 × 10^4.
For the molecule `CC1(C)S[C@@H]2[C@H](NC(=O)[C@H](N)c3ccc(O)cc3)C(=O)N2[C@H]1C(=O)O` [AMO, amoxicillin], in test [1], the MIC worked out at 3.6 µg/mL (≈ 9.85 µM). Also, the “cell number L. paracasei” value in the test on L. paracasei [2] (antibiotic 2 μg) was 2.00 × 10^4. The “cell number L. delbrueckii” value with L. delbrueckii [3] (antibiotic 2 μg) is recorded as 5.00 × 10^4. Moreover, the “survival counting L. delbrueckii” value in the test with L. delbrueckii [4] (antibiotic 2 μg/ml) came out at 6670 ± 610; in the test on L. delbrueckii [4] (antibiotic 5 μg/ml) it was 1170 ± 76. Besides, the results for the “survival counting L. paracasei” value with L. paracasei [5] (antibiotic 2 μg/ml) and with L. paracasei [5] (antibiotic 5 μg/ml) were 3000 ± 500 and 4300 ± 445, respectively. For the same molecule, the “survival counting L. rhamnosus” value with L. rhamnosus [6] (antibiotic 2 μg/ml) was determined as 500 ± 50; in the test with L. rhamnosus [6] (antibiotic 5 μg/ml), 370 ± 10. Further, the “cell number L. rhamnosus” value in the test with L. rhamnosus [7] (antibiotic 2 μg) is 3.40 × 10^3.

Source of the values: US9259450B2, “Use of a fermented soy extract as a prebiotic composition” (MICROBIO CO., LTD., priority 2010, dated 2016).
